Experimental data taken from the supplement of paper PMC10307832.

Tests used:
Assay in all cases: relative viability (nuclei count vs DMSO), 5 days (fraction); higher = more cells survive
Neratinib + Linsitinib = compound: CCOc1cc2ncc(C#N)c(Nc3ccc(OCc4ccccn4)c(Cl)c3)c2cc1NC(=O)/C=C/CN(C)C [Neratinib] + C[C@]1(O)C[C@@H](c2nc(-c3ccc4ccc(-c5ccccc5)nc4c3)c3c(N)nccn32)C1 [Linsitinib] (partner 1 µM)
Method in brief: (§1)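 Lung cancer cell lines were pin-tool dosed in 1536-well plates on the day after seeding, with either a lone drug or a fixed anchor-drug dose plus five library-drug doses (not always all listed) in √10 steps. Nuclei were counted on 4× images after 5 days. Relative viability is the ratio of treated-well to vehicle-well nuclei counts, with each value a median of duplicate plates.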

Neratinib + Alpelisib = compound: CCOc1cc2ncc(C#N)c(Nc3ccc(OCc4ccccn4)c(Cl)c3)c2cc1NC(=O)/C=C/CN(C)C [Neratinib] + Cc1nc(NC(=O)N2CCC[C@H]2C(N)=O)sc1-c1ccnc(C(C)(C)C(F)(F)F)c1 [Alpelisib] (partner 2 µM)
Method in brief: as §1

Neratinib + Vorinostat = compound: CCOc1cc2ncc(C#N)c(Nc3ccc(OCc4ccccn4)c(Cl)c3)c2cc1NC(=O)/C=C/CN(C)C [Neratinib] + O=C(CCCCCCC(=O)Nc1ccccc1)NO [Vorinostat] (partner 1 µM)
Method in brief: as §1

Neratinib + Navitoclax = compound: CCOc1cc2ncc(C#N)c(Nc3ccc(OCc4ccccn4)c(Cl)c3)c2cc1NC(=O)/C=C/CN(C)C [Neratinib] + CC1(C)CCC(c2ccc(Cl)cc2)=C(CN2CCN(c3ccc(C(=O)NS(=O)(=O)c4ccc(N[C@H](CCN5CCOCC5)CSc5ccccc5)c(S(=O)(=O)C(F)(F)F)c4)cc3)CC2)C1 [Navitoclax] (partner 0.5 µM)
Method in brief: as §1

Cell Line	relative viability (Neratinib + Linsitinib; first compound 0.01 µM)	relative viability (Neratinib + Linsitinib; first compound 0.03162 µM)	relative viability (Neratinib + Linsitinib; first compound 0.1 µM)	relative viability (Neratinib + Linsitinib; first compound 0.3162 µM)	relative viability (Neratinib + Linsitinib; first compound 1 µM)	relative viability (Neratinib + Alpelisib; first compound 0.01 µM)	relative viability (Neratinib + Alpelisib; first compound 0.03162 µM)	relative viability (Neratinib + Alpelisib; first compound 0.1 µM)	relative viability (Neratinib + Alpelisib; first compound 0.3162 µM)	relative viability (Neratinib + Alpelisib; first compound 1 µM)	relative viability (Neratinib + Vorinostat; first compound 0.01 µM)	relative viability (Neratinib + Vorinostat; first compound 0.03162 µM)	relative viability (Neratinib + Vorinostat; first compound 0.1 µM)	relative viability (Neratinib + Vorinostat; first compound 0.3162 µM)	relative viability (Neratinib + Vorinostat; first compound 1 µM)	relative viability (Neratinib + Navitoclax; first compound 0.01 µM)	relative viability (Neratinib + Navitoclax; first compound 0.03162 µM)	relative viability (Neratinib + Navitoclax; first compound 0.1 µM)	relative viability (Neratinib + Navitoclax; first compound 0.3162 µM)	relative viability (Neratinib + Navitoclax; first compound 1 µM)
CAL-12T	0.771	1.09	0.703	0.455	0.343	1.1	1.21	0.886	0.517	0.201	0.802	0.835	0.553	0.436	0.198	1.27	1.59	0.94	0.632	0.232
COR-L23	1.01	1.08	0.879	0.835	0.318	0.971	0.83	0.732	0.698	0.322	0.466	0.468	0.486	0.449	0.235	1.16	1.13	1.13	0.968	0.485
NCI-H1755	1.04	0.988	0.911	1.05	0.775	0.947	1.04	0.899	0.946	0.409	0.828	0.695	0.658	0.916	0.794	1.06	–	–	1.02	0.469
NCI-H1437	1.27	1.1	–	0.793	0.723	1.11	1.07	0.714	0.912	0.617	0.916	0.906	0.799	0.843	0.85	1.14	1.12	1.05	1	1.05
NCI-H2087	0.951	0.949	–	0.765	0.615	1.15	1.11	–	1.05	–	0.783	0.566	0.538	0.711	0.573	1.04	0.896	–	1	0.444
IA-LM	0.537	0.87	0.581	0.541	0.628	0.846	0.894	0.647	0.782	0.486	0.983	1	–	0.924	0.715	0.814	0.774	–	0.65	0.494
H3255	0.963	0.961	0.725	0.233	0.0969	0.706	–	0.468	0.171	0.107	0.826	0.826	0.65	0.509	0.191	0.583	0.74	0.243	0.0785	0.0934
NCI-H838	1.06	1.17	0.945	0.819	0.409	1.05	1.16	0.94	0.832	0.344	–	0.794	0.705	0.735	0.619	1.21	1.22	0.972	0.995	0.588
